Columns and labels:
[1] = tested on: MCF7; test: Induction of apoptosis in human MCF7 cells assessed as early apoptotic cells at […] incubated for 24 hrs by Annexin V-PE/7-AAD staining based flow cytometric analysis (Rvb= 1.3 %); assay type: functional; conditions: dose 1.1 µM
[2] = tested on: MCF7; test: Induction of apoptosis in human MCF7 cells assessed as early apoptotic cells at 3.3 uM incubated for 24 hrs by Annexin V-PE/7-AAD staining based flow cytometric analysis (Rvb= 1.3 %); assay type: functional
[3] = tested on: MCF7; test: Induction of apoptosis in human MCF7 cells assessed as early apoptotic cells at 10 uM incubated for 24 hrs by Annexin V-PE/7-AAD staining based flow cytometric analysis (Rvb= 1.3 %); assay type: functional
[4] = tested on: MCF7; test: Induction of apoptosis in human MCF7 cells assessed as late apoptotic cells at […] incubated for 24 hrs by Annexin V-PE/7-AAD staining based flow cytometric analysis (Rvb= […]); assay type: functional; conditions: dose 1.1 µM
[5] = tested on: MCF7; test: Induction of apoptosis in human MCF7 cells assessed as late apoptotic cells at 3.3 uM incubated for 24 hrs by Annexin V-PE/7-AAD staining based flow cytometric analysis (Rvb= […]); assay type: functional
[6] = tested on: MCF7; test: Induction of apoptosis in human MCF7 cells assessed as late apoptotic cells at 10 uM incubated for 24 hrs by Annexin V-PE/7-AAD staining based flow cytometric analysis (Rvb= […]); assay type: functional
[7] = tested on: MCF7; test: Induction of apoptosis in human MCF7 cells assessed as necrotic cells at […] incubated for 24 hrs by Annexin V-PE/7-AAD staining based flow cytometric analysis (Rvb= 0.4 %); assay type: functional; conditions: dose 1.1 µM
[8] = tested on: MCF7; test: Induction of apoptosis in human MCF7 cells assessed as necrotic cells at 3.3 uM incubated for 24 hrs by Annexin V-PE/7-AAD staining based flow cytometric analysis (Rvb= 0.4 %); assay type: functional
[9] = tested on: MCF7; test: Induction of apoptosis in human MCF7 cells assessed as necrotic cells at 10 uM incubated for 24 hrs by Annexin V-PE/7-AAD staining based flow cytometric analysis (Rvb= 0.4 %); assay type: functional
[10] = tested on: MCF7; test: Antitumor activity against human MCF7 cells xenografted in NCG mouse assessed as inhibition of tumor growth at 12.5 mg/kg,po administrated daily for 21 days relative to control; assay type: functional; conditions: MCF7, 504 h, time 21 day, read-out: TGI
[11] = tested on: T47D; test: cells; conditions: Homo sapiens, 168 h
Description: Antiproliferative activity against human T47D cells assessed as inhibition of cell growth incubated for 7 days by CCK8 assay

[12] = tested on: MCF7; test: cells; conditions: Homo sapiens, MCF7, 168 h
Description: Antiproliferative activity against human MCF7 cells assessed as inhibition of cell growth incubated for 7 days by CCK8 assay

[13] = tested on: MCF7; test: cells; conditions: Homo sapiens, MCF7, 24 h, read-out: Activity
[14] = tested on: MCF7; test: cells; conditions: Homo sapiens, MCF7, 24 h, read-out: Activity; remark: listed apart in the source
[15] = tested on: MCF7; test: cells; conditions: Homo sapiens, MCF7, 24 h, read-out: Activity; remark: listed apart in the source
[16] = biological target: T1, Phosphatidylinositol 4,5-bisphosphate 3-kinase catalytic subunit delta isoform (Homo sapiens, UniProt O00329); test: Inhibition of PI3Kdelta (unknown origin) incubated for 60 mins in presence of ATP by ADP-Glo reagent assay relative to control
T1 sequence (O00329 whole entry): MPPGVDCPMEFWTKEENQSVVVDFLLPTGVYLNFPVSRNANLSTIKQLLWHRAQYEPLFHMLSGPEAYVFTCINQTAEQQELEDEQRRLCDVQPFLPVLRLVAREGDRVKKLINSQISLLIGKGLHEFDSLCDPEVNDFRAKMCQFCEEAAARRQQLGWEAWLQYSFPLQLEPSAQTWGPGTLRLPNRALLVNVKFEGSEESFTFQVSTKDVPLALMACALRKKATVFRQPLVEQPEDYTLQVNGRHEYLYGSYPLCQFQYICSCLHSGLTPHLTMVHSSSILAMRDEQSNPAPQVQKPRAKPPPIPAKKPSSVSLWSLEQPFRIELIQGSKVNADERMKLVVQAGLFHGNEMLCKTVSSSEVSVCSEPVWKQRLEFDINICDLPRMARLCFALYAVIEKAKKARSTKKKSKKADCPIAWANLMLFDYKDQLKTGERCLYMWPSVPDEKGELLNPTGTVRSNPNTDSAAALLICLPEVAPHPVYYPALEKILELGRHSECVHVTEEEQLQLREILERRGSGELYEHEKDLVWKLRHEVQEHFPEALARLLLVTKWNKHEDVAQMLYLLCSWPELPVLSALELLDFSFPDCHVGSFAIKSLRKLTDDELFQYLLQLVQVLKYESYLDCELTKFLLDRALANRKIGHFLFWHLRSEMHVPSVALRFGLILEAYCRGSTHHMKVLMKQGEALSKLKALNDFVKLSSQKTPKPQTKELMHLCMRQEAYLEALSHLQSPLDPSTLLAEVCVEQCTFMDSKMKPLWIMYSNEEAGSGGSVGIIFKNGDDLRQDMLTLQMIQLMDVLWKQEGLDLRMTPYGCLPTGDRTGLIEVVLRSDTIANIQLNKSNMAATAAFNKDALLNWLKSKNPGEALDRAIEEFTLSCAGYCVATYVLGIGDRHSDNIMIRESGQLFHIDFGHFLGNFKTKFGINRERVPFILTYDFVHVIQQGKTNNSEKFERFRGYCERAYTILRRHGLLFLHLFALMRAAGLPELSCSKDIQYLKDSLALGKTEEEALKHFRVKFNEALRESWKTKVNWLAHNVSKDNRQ

[17] = biological target: Phosphatidylinositol 4,5-bisphosphate 3-kinase catalytic subunit beta isoform (Homo sapiens, UniProt P42338); test: Inhibition of PI3Kbeta (unknown origin) incubated for 60 mins in presence of ATP by ADP-Glo reagent assay
Phosphatidylinositol 4,5-bisphosphate 3-kinase catalytic subunit beta isoform, sequence (P42338 whole entry, canonical isoform): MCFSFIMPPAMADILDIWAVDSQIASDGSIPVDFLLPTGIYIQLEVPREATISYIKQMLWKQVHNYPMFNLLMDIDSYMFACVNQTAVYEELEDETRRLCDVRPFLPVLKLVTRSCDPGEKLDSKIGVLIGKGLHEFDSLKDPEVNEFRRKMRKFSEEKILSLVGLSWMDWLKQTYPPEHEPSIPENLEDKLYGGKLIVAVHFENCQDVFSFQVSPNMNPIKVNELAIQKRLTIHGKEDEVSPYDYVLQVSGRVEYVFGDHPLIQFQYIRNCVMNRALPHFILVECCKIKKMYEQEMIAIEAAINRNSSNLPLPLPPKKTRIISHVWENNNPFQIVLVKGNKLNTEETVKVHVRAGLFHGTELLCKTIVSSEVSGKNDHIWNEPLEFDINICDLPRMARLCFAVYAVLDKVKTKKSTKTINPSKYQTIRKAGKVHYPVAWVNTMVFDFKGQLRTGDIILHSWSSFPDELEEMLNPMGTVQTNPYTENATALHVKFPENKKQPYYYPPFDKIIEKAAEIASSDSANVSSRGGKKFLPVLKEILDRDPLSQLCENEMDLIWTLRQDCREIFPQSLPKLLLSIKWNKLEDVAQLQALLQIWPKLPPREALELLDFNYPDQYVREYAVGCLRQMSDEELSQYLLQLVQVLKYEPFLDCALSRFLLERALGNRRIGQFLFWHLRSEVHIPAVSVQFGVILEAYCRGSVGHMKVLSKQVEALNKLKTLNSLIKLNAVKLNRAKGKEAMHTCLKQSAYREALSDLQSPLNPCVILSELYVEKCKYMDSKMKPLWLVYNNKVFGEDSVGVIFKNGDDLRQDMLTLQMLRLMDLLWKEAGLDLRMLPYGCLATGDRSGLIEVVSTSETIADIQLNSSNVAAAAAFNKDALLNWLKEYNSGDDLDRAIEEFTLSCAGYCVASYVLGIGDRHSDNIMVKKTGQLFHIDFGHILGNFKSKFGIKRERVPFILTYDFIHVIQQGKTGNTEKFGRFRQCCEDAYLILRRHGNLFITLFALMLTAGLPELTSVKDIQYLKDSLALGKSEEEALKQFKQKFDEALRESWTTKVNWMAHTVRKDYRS

[18] = biological target: Phosphatidylinositol 4,5-bisphosphate 3-kinase catalytic subunit gamma isoform (Homo sapiens, UniProt P48736); test: Inhibition of PI3Kgamma (unknown origin) incubated for 60 mins in presence of ATP by ADP-Glo reagent assay
Phosphatidylinositol 4,5-bisphosphate 3-kinase catalytic subunit gamma isoform, sequence (P48736 whole entry, canonical isoform): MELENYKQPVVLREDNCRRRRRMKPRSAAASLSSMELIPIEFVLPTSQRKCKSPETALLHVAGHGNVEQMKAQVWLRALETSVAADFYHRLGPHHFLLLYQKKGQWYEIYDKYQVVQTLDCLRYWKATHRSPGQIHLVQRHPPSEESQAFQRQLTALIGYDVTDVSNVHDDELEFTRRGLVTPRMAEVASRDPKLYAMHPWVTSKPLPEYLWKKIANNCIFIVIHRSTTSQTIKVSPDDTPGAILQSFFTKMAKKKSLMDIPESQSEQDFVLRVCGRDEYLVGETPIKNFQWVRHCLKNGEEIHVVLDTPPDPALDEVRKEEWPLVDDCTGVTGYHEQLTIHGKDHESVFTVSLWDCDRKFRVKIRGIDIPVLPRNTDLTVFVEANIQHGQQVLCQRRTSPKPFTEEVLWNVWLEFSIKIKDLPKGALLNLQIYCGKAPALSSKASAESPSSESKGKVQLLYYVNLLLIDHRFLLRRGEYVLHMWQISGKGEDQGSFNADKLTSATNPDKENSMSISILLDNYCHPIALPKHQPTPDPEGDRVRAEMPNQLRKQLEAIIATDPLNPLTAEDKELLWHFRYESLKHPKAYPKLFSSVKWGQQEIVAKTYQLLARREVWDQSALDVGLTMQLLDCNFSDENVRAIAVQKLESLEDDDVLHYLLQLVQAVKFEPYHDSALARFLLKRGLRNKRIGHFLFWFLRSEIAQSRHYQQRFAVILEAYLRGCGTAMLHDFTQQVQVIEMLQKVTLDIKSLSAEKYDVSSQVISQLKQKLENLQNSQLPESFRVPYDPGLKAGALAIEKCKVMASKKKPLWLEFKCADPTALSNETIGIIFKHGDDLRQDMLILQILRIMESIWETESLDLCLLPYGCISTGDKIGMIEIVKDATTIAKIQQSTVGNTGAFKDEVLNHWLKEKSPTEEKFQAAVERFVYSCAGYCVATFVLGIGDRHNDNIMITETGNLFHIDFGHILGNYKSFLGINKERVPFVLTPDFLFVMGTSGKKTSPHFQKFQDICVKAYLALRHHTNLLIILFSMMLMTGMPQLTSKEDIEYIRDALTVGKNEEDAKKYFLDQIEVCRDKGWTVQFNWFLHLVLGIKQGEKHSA

IC50 [11] | IC50 [12] | IC50 [16] | IC50 [17] | IC50 [18] | Compound | also measured
16.6 µM | 14.9 µM | – | – | – | C[C@H](Oc1ccc2c(c1)OCc1ccc(-c3cccnc3)cc1-2)C(N)=O | –
– | – | 352 nM | 3.25 µM | 0.94 µM | C[C@H](Oc1ccc2c(c1)OCc1ccc(-c3ccncc3)cc1-2)C(N)=O | –
8.1 µM | 13.9 µM | – | – | – | C[C@H](Oc1ccc2c(c1)OCc1ccc(-c3ccccn3)cc1-2)C(N)=O | –

Further lines, the compound ahead of its results:

Compound | IC50 [11] | IC50 [12] | IC50 [16] | IC50 [17] | IC50 [18] | also measured
Cc1nc(NC(=O)N2CCC[C@H]2C(N)=O)sc1-c1ccnc(C(C)(C)C(F)(F)F)c1 [ALPELISIB] | 0.4 µM | 0.6 µM | – | – | – | Activity [1]: 2.2%; Activity [2]: 3.9%; Activity [3]: 2.9%; Activity [4]: 12.5%; Activity [5]: 16.1%; Activity [6]: 15%; Activity [7]: 10.3%; Activity [8]: 16.3%; Activity [9]: 33.6%; inhibition in vivo at 12.5 mg/kg [10]: 88%; viability at […] [13]: 75%; viability at 3.3 µM [14]: 63.7%; viability at 10 µM [15]: 48.5%
C[C@H](Oc1ccc2c(c1)OCc1ccc(-c3cc[nH]n3)cc1-2)C(N)=O | – | – | 440 nM | 2.67 µM | 1.29 µM | –
C[C@H](Oc1ccc2c(c1)OCc1ccc(-c3ncccn3)cc1-2)C(N)=O | – | – | 1160 nM | > 10 µM | 7.09 µM | –
C[C@H](Oc1ccc2c(c1)OCc1ccc(-c3ncnn3C)cc1-2)C(N)=O | – | – | 933 nM | 4.97 µM | 5.07 µM | –
C[C@H](Oc1ccc2c(c1)OCc1ccc(-c3ccncn3)cc1-2)C(N)=O | – | – | 702 nM | – | – | –
C[C@H](Oc1ccc2c(c1)OCc1ccc(-c3ccn(C)n3)cc1-2)C(N)=O | 11.5 µM | 17.2 µM | – | – | – | –
CC(C)n1nccc1-c1ccc2c(c1)-c1ccc(O[C@@H](C)C(N)=O)cc1OC2 | 24.9 µM | 21.9 µM | – | – | – | –

— ChEMBL document CHEMBL5579880, “Rational Design of a Novel 6H-Benzo[c]chromen Series as Selective PI3Kα Inhibitors” (J Med Chem, 2024)
